# Measurements from ChEMBL document CHEMBL1124934, “Synthesis and structure-activity relationships of dynorphin A-(1-8) amide analogues” (J Med Chem, 1990).
# Species on record: Mus musculus
# Test: animal or person
# Settings: iv
compound,measurement,value
CN1CC[C@]23c4c5ccc(O)c4O[C@H]2[C@@H](O)C=C[C@H]3[C@H]1C5 [MORPHINE],ED50,1.85 mg/kg
